The experiment has as its target T1, Recombinant human Ku heterodimer (Homo sapiens, UniProt P12956+P13010).
T1 construct: made in house; host or cells: insect cells infected with recombinant baculovirus
Nature of the experiment: Ku-DNA binding assay. The source says:
Ku is a DNA end-binding protein that is essential for the repair of DNA double strand breaks via the NHEJ pathway. The mechanism of DNA binding by Ku is via a toroid structure that encircles double-stranded DNA from a terminus.

[1] abbreviates: Table 2, synthesized derivatives, several values in a cell = separate determinations, read-out: IC50.
Setting [2] is: IC50 (concentration that inhibits 50% of the binding activity), titration into Ku-DNA binding reactions (FIG. 1, FIG. 2).
[3] abbreviates: Table 1, purchased second generation inhibitors, several values in a cell = separate determinations, read-out: IC50.

The structures appear in SMILES notation. “And” between values parts separate entries of the source, which are not always exact repeats. Equal entries are not always repeated. Where two headings read alike, the source gives them in different places.

T1 sequence (P12956 whole entry): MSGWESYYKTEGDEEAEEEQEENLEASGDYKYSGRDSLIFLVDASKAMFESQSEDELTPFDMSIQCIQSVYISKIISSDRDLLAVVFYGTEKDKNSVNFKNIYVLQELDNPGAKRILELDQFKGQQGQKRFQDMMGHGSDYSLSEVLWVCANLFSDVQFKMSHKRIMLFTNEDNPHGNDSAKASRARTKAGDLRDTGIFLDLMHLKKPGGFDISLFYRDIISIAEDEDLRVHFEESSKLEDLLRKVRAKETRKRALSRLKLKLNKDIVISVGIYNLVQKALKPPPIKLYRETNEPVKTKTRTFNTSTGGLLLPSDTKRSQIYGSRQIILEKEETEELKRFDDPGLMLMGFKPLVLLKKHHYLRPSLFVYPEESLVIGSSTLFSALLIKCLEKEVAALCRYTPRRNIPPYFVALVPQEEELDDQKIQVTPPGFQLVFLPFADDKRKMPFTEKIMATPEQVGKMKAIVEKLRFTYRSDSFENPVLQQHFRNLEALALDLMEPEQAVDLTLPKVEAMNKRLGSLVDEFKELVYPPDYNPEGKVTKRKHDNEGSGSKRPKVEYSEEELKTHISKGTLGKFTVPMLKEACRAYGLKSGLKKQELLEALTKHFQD
T1 sequence (P13010 whole entry): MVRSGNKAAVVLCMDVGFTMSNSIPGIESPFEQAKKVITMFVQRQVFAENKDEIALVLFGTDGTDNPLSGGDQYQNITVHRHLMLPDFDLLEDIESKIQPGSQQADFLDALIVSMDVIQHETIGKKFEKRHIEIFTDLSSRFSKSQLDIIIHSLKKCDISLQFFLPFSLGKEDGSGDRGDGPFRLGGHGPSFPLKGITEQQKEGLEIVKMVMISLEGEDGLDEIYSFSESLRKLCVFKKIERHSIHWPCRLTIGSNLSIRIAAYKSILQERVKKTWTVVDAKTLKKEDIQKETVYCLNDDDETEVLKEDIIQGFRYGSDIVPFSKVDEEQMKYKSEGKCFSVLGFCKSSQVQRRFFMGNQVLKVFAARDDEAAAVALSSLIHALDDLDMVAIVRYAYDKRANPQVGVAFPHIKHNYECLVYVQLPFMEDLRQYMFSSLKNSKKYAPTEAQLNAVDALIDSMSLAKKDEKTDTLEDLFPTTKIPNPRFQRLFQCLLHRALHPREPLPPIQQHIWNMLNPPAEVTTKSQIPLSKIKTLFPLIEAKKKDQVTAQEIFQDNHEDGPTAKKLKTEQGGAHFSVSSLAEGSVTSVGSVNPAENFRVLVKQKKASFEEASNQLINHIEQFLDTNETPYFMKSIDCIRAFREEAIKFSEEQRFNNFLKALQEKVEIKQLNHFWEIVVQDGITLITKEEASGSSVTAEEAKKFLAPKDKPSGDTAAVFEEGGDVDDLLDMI

Consider `CC1=NN(c2cccc(C(=O)O)c2)C(=O)C1Cc1ccc(-c2ccc(Cl)c(C(=O)NCc3ccc(F)cc3)c2)o1` (stereo not drawn) [NG-01-65, 3-(4-((5-(4-Chloro-3-((4-fluorobenzyl)carbamoyl)phenyl)furan-2-yl)methyl)-3-methyl-5-oxo-4,5-dihydro-1H-pyrazol-1-yl)benzoic acid], for which the IC50 under setting [1] was found to be 8 µM.
The same measure, in the same setting: to `CC1=NN(c2cccc(C(=O)O)c2)C(=O)/C1=C\c1ccc(-c2ccc(Cl)c(C(=O)NCC3CC3)c2)o1` [NG-01-70, (Z)-3-(4-((5-(4-Chloro-3-((cyclopropylmethyl)carbamoyl)phenyl)furan-2-yl)methylene)-3-methyl-5-oxo-4,5-dihydro-1H-pyrazol-1-yl)benzoic acid] belongs 25 µM and > 50 µM; to `CC1=NN(c2cccc(C(=O)O)c2)C(=O)C1Cc1ccc(-c2ccc(Cl)c(C(=O)NCC3CC3)c2)o1` (stereo not drawn) [NG-01-72, 3-(4-((5-(4-Chloro-3-((cyclopropylmethyl)carbamoyl)phenyl)furan-2-yl)methyl)-3-methyl-5-oxo-4,5-dihydro-1H-pyrazol-1-yl)benzoic acid], 10 µM; to `CCOC(=O)c1cccc(N2N=C(C)/C(=C/c3ccc(-c4ccc(Cl)c(C(=O)Nc5cccc(OC)c5)c4)o3)C2=O)c1` [NG-02-130, (Z)-Ethyl 3-(4-((5-(4-chloro-3-((3-methoxyphenyl)carbamoyl)phenyl)furan-2-yl)methylene)-3-methyl-5-oxo-4,5-dihydro-1H-pyrazol-1-yl)benzoate], 3 µM.
Same read-out and setting: the result for `CCOC(=O)c1cccc(N2N=C(C)C(Cc3ccc(-c4ccc(Cl)c(C(=O)Nc5cccc(OC)c5)c4)o3)C2=O)c1` (stereo not drawn) [NG-02-131, Ethyl 3-(4-((5-(4-chloro-3-((3-methoxyphenyl)carbamoyl)phenyl)furan-2-yl)methyl)-3-methyl-5-oxo-4,5-dihydro-1H-pyrazol-1-yl)benzoate] reads 3 µM; that for `COc1cccc(NC(=O)c2ccc(/C=C3\C(=O)N(c4cccc(C(=O)O)c4)N=C3C)o2)c1` [NG-02-162/ NG-02-162C, (Z)-3-(4-((5-((3-methoxyphenyl)carbamoyl)furan-2-yl)methylene)-3-methyl-5-oxo-4,5-dihydro-1H-pyrazol-1-yl)benzoic acid], 8 µM and 11 µM.
Take `COc1cccc(NC(=O)c2ccc(CC3C(=O)N(c4cccc(C(=O)O)c4)N=C3C)o2)c1` (stereo not drawn) [NG-02-165, 3-(4-((5-((3-Methoxyphenyl)carbamoyl)furan-2-yl)methyl)-3-methyl-5-oxo-4,5-dihydro-1H-pyrazol-1-yl)benzoic acid]: the IC50 under setting [1] is 11 µM.
Same read-out and setting: the result for `COc1cccc(NC(=O)c2cc(-c3ccc(/C=C4\C(=O)N(c5cccc(-c6nnn[nH]6)c5)N=C4C)o3)ccc2Cl)c1` [NG-02-201/ NG-03-244] reads 4 µM; that for `COc1cccc(NC(=O)c2cc(-c3ccc(CC4C(=O)N(c5ccc(C(=O)O)cc5)N=C4C)o3)ccc2Cl)c1` (stereo not drawn) [NG-03-188, 4-(4-((5-(4-Chloro-3-((3-methoxyphenyl)carbamoyl)phenyl)furan-2-yl)methyl)-3-methyl-5-oxo-4,5-dihydro-1H-pyrazol-1-yl)benzoic acid], 12.5 µM and 6 µM.
The same measure, in the same setting: to `COc1ccc(NC(=O)c2cc(-c3ccc(/C=C4\C(=O)N(c5cccc(C(=O)O)c5)N=C4C)o3)ccc2Cl)cc1OC` [NG-03-189, (Z)-3-(4-((5-(4-chloro-3-((3,4-dimethoxyphenyl)carbamoyl)phenyl)furan-2-yl)methylene)-3-methyl-5-oxo-4,5-dihydro-1H-pyrazol-1-yl)benzoic acid] belongs 14 µM; to `COc1cccc(NC(=O)c2cc(-c3ccc(/C=C4\C(=O)N(c5ccc(S(N)(=O)=O)cc5)N=C4C)o3)ccc2Cl)c1` [NG-03-196, (Z)-2-chloro-N-(3-methoxyphenyl)-5-(5-((3-methyl-5-oxo-1-(4-sulfamoylphenyl)-1,5-dihydro-4H-pyrazol-4-ylidene)methyl)furan-2-yl)benzamide], 20 µM; to `COc1cccc(NC(=O)c2cc(-c3ccc(/C=C4\C(=O)N(c5cccc(-c6nnn[nH]6)c5)N=C4C)o3)ccc2Cl)c1` [NG-03-201, (Z)-5-(5-((1-(3-(1H-Tetrazol-5-yl)phenyl)-3-methyl-5-oxo-1,5-dihydro-4H-pyrazol-4-ylidene)methyl)furan-2-yl)-2-chloro-N-(3-methoxyphenyl)benzamide], 4.5 µM and 6.5 µM.
For the compound `COc1cccc(NC(=O)c2cc(-c3ccc(/C=C4\C(=O)N(c5cccc(C(=O)O)c5)N=C4C)s3)ccc2Cl)c1` [NG-03-203, (Z)-3-(4-((5-(4-chloro-3-((3-methoxyphenyl)carbamoyl)phenyl)thiophen-2-yl)methylene)-3-methyl-5-oxo-4,5-dihydro-1H-pyrazol-1-yl)benzoic acid], the IC50 under setting [1] is 18 µM.
As for `COc1ccc(NC(=O)c2cc(-c3ccc(CC4C(=O)N(c5cccc(C(=O)O)c5)N=C4C)o3)ccc2Cl)cc1OC` (stereo not drawn) [NG-03-206, 3-(4-((5-(4-Chloro-3-((3,4-dimethoxyphenyl)carbamoyl)phenyl)furan-2-yl)methyl)-3-methyl-5-oxo-4,5-dihydro-1H-pyrazol-1-yl)benzoic acid], the IC50 under setting [1] amounted to 7.5 µM.
Still for that read-out and setting: to `COc1cccc(NC(=O)c2cc(-c3ccc(CC4C(=O)N(c5cccc(C(=O)O)c5)N=C4C)s3)ccc2Cl)c1` (stereo not drawn) [NG-03-207, 3-(4-((5-(4-chloro-3-((3-Methoxyphenyl)carbamoyl)phenyl)thiophen-2-yl)methyl)-3-methyl-5-oxo-4,5-dihydro-1H-pyrazol-1-yl)benzoic acid] belongs 7 µM; to `CC1=NN(c2ccc(S(N)(=O)=O)cc2)C(=O)/C1=C\c1ccc(-c2ccc(Cl)c(C(=O)NCC3CC3)c2)o1` [NG-03-212, (Z)-2-chloro-N-(cyclopropylmethyl)-5-(5-((3-methyl-5-oxo-1-(4-sulfamoylphenyl)-1,5-dihydro-4H-pyrazol-4-ylidene)methyl)furan-2-yl)benzamide], 30 µM.
Still for that read-out and setting: the result for `CC1=NN(c2cccc(C(=O)O)c2)C(=O)/C1=C\c1ccc(-c2ccc(Cl)c(C(=O)O)c2)s1` [NG-03-224, (Z)-5-(5-((1-(3-Carboxyphenyl)-3-methyl-5-oxo-1,5-dihydro-4H-pyrazol-4-ylidene)methyl)thiophen-2-yl)-2-chlorobenzoic acid] reads 15 µM; that for `CC1=NN(c2cccc(C(=O)O)c2)C(=O)/C1=C\c1ccc(-c2ccc(Cl)c(C(=O)NCC3CC3)c2)s1` [NG-03-226, (Z)-3-(4-((5-(4-Chloro-3-((cyclopropylmethyl)carbamoyl)phenyl)thiophen-2-yl)methylene)-3-methyl-5-oxo-4,5-dihydro-1H-pyrazol-1-yl)benzoic acid], 7 µM; that for `CC1=NN(c2cccc(C(=O)O)c2)C(=O)C1Cc1ccc(-c2ccc(Cl)c(C(=O)NCC3CC3)c2)s1` (stereo not drawn) [NG-03-231, 3-(4-((5-(4-Chloro-3-((cyclopropylmethyl)carbamoyl)phenyl)thiophen-2-yl)methyl)-3-methyl-5-oxo-4,5-dihydro-1H-pyrazol-1-yl)benzoic acid], 12 µM.
On the same count and under the same terms, to `CC1=NN(c2ccc(C(=O)O)cc2)C(=O)/C1=C\c1ccc(-c2ccc(Cl)c(C(=O)O)c2)s1` [NG-03-234, (Z)-5-(5-((1-(4-Carboxyphenyl)-3-methyl-5-oxo-1,5-dihydro-4H-pyrazol-4-ylidene)methyl)thiophen-2-yl)-2-chlorobenzoic acid] belongs 6 µM.
On to `CCOC(=O)c1ccc(N2N=C(C)/C(=C/c3ccc(-c4ccc(Cl)c(C(=O)Nc5cccc(OC)c5)c4)s3)C2=O)cc1` [NG-03-235, Ethyl (Z)-4-(4-((5-(4-chloro-3-((3-methoxyphenyl)carbamoyl)phenyl)thiophen-2-yl)methylene)-3-methyl-5-oxo-4,5-dihydro-1H-pyrazol-1-yl)benzoate], for which the half-maximal inhibitory concentration (IC50) under setting [1] turned out to be 8.75 µM.
`COc1cccc(NC(=O)c2cc(-c3ccc(/C=C4\C(=O)N(c5ccc(C(=O)O)cc5)N=C4C)s3)ccc2Cl)c1` [NG-03-236, (Z)-4-(4-((5-(4-Chloro-3-((3-methoxyphenyl)carbamoyl)phenyl)thiophen-2-yl)methylene)-3-methyl-5-oxo-4,5-dihydro-1H-pyrazol-1-yl)benzoic acid]: the IC50 under setting [1] was found to be 10 µM.
Same read-out and setting: to `COc1cccc(NC(=O)c2cc(-c3ccc(CC4C(=O)N(c5ccc(C(=O)O)cc5)N=C4C)s3)ccc2Cl)c1` (stereo not drawn) [NG-03-238, 4-(4-((5-(4-Chloro-3-((3-methoxyphenyl)carbamoyl)phenyl)thiophen-2-yl)methyl)-3-methyl-5-oxo-4,5-dihydro-1H-pyrazol-1-yl)benzoic acid] belongs 14 µM.
The same measure, in the same setting: to `CC1=NN(c2cccc(C(=O)O)c2)C(=O)/C1=C\c1ccc(-c2ccc(Cl)c(C(=O)NCc3ccccc3)c2)o1` [NG-03-270, (Z)-3-(4-((5-(3-(Benzylcarbamoyl)-4-chlorophenyl)furan-2-yl)methylene)-3-methyl-5-oxo-4,5-dihydro-1H-pyrazol-1-yl)benzoic acid] belongs 10 µM.
Turning to `CC1=NN(c2cccc(C(=O)O)c2)C(=O)/C1=C\c1ccc(-c2ccc(Cl)c(C(=O)O)c2)o1` [X80, (Z)-5-(5-((1-(3-Carboxyphenyl)-3-methyl-5-oxo-1H-pyrazol-4(5H)-ylidene)methyl)furan-2-yl)-2-chlorobenzoic acid], the IC50 under setting [2] was about 75 µM.
Regarding `CC1=NN(c2ccc(Cl)c(C(=O)O)c2)C(=O)/C1=C\c1ccc(-c2ccc([N+](=O)[O-])cc2Br)o1` [compound 0277, reference compound], the IC50 under setting [3] was 21 µM and 19 µM.
Still for that read-out and setting: the result for `CC1=NN(c2cccc(C(=O)O)c2)C(=O)/C1=C\c1ccc(-c2cc([N+](=O)[O-])ccc2C)o1` [compound 0302, reference compound] reads 13 µM and 7 µM and 9 µM.
With `CCCCOC(=O)c1cc(-c2ccc(/C=C3\C(=O)N(c4ccc(Cl)c(C(=O)O)c4)N=C3C)o2)ccc1Cl` [compound 0530, reference compound], the half-maximal inhibitory concentration (IC50) reads like this: under setting [2], about 5 µM; under setting [3], 5.6 µM.
Regarding `CC1=NN(c2cccc(C(=O)O)c2)C(=O)/C1=C\c1ccc(-c2cccc(C(=O)O)c2)o1` [compound 0803, reference compound], the IC50 under setting [3] was determined as 65 µM.

Values taken from patent US11098033B2, “Ku inhibitors and their use” (INDIANA UNIVERSITY RESEARCH AND TECHNOLOGY CORPORATION, priority 2016, dated 2021).
